Measurements from US20240365781A1, “SYNERGISTICALLY EFFECTIVE HERBICIDE COMPOSITION COMPRISING PELARGONIC ACID AND FLAZASULFURON” (Belchim Crop Protection NV, priority 2017, published 2024).

Assays:
Format in all cases: in vivo
Convolvulus arvensis = assay: post-emergence field trial under rows of vines, 150-200 L water/ha (Examples 6-9); settings: flazasulfuron 40 g/ha
From the text: (§1) The expected activity of a given combination of two or three herbicides can be calculated as follows according to a calculation method by Colby (cf. COLBY, S. R.: “Calculating synergistic and antagonistic responses of herbicide combinations”, • Weeds 15, pages 20-22, 1967): • If X=% damage by herbicide (A) at an application rate of m g/ha, • Y=% damage by herbicide (B) at an application rate of n g/ha, • E=the expected damage by herbicides (A) and (B) at application rates of m and n […] and, • then for a combination:
(§2) Individual compositions comprising pelargonic acid or flazasulfuron are compared with a herbicide composition according to the invention comprising pelargonic acid and flazasulfuron.
(§3) Herbicidal activity was determined by performing a post-emergence test. […] The corresponding mixture was in the form of a spray solution. Besides, spray solutions of individual compositions comprising pelargonic acid or flazasulfuron were used.
(§4) The spray solution was applied on plants of unwanted vegetation present on fields where perennial crops were grown.
(§5) After 5 to 88 days after application of the spray solution, the degree of damage to the unwanted vegetation is rated in % of plants of unwanted vegetation that were killed. Tests were performed on test fields (field trials).

Bromus oxyodon = assay: as above; settings: flazasulfuron 40 g/ha
From the text: as §1, §2, §3, §4, §5

Senecio vulgaris = assay: as above; settings: flazasulfuron 40 g/ha
From the text: as §1, §2, §3, §4, §5

Taraxacum officinalis = assay: post-emergence field trial under rows of apple trees, 150-200 L water/ha (Examples 10-12); settings: 20 g of active compound/ha
Procedure: as §3, §4, §5

Veronica persicae = assay: as above; settings: 20 g of active compound/ha
Procedure: as §3, §4, §5

Stellaria media = assay: as above; settings: 20 g of active compound/ha
Procedure: as §3, §4, §5

Poa annua [1] = assay: as above; settings: 20 g of active compound/ha
Procedure: as §3, §4, §5

Sonchus oleracea = assay: as above; settings: 20 g of active compound/ha
Procedure: as §3, §4, §5

Capsella bursa-pastoris = assay: as above; settings: 20 g of active compound/ha
Procedure: as §3, §4, §5

Trifolium repens = assay: post-emergence test, pot trial (Examples 1-5); settings: 28 d, PT; pelargonic acid 10880 g/ha, flazasulfuron 50 g/ha; 16 L/ha
From the text: as §1, §2
(§6) Herbicidal activity was determined by performing a post-emergence test. […] The corresponding mixture was in the form of a spray liquor. Besides, spray liquors of individual compositions comprising pelargonic acid or flazasulfuron were used.
(§7) Tests were performed on test fields (field trials) or in pots (pot trials).

Setaria pumila = assay: post-emergence test, pot trial (Examples 1-5); settings: young plants, 28 d, PT, pelargonic acid 10880 g/ha, 16 L/ha
From the text: as §1, §2, §6, §7

Geranium dissectum = assay: post-emergence test, pot trial (Examples 1-5); settings: 28 d, PT, pelargonic acid 10880 g/ha, 16 L/ha
From the text: as §1, §2, §6, §7

Poa annua [2] = assay: post-emergence test, pot trial (Examples 1-5); settings: 28 d, PT; pelargonic acid 10880 g/ha, flazasulfuron 50 g/ha; 16 L/ha
From the text: as §1, §2, §6, §7

Matricaria chamomilla = assay: post-emergence test, pot trial (Examples 1-5); settings: bigger plants, 28 d, PT, pelargonic acid 10880 g/ha, 16 L/ha
From the text: as §1, §2, §6, §7

[3] = 14 d, pelargonic acid 5440 g/ha
[4] = 14 d, pelargonic acid 6800 g/ha
[5] = 14 d, pelargonic acid 8160 g/ha
[6] = 14 d, pelargonic acid 10880 g/ha
[7] = 28 d, pelargonic acid 6800 g/ha
[8] = 28 d, pelargonic acid 8160 g/ha
[9] = 28 d, pelargonic acid 10880 g/ha

**Q.** Which herbicidal effect (Convolvulus arvensis; 7 d, pelargonic acid 5440 g/ha) does the source give for `COc1cc(OC)nc(NC(=O)NS(=O)(=O)c2ncccc2C(F)(F)F)n1` [Flazasulfuron, 1-(4,6-dimethoxypyrimidin-2-yl)-3-(3-trifluoromethyl-2-pyridylsulfonyl)urea] here?
**A.** 73%

**Q.** And the herbicidal effect (Convolvulus arvensis; 7 d, pelargonic acid 6800 g/ha)?
**A.** 73%

**Q.** And the herbicidal effect (Convolvulus arvensis; 7 d, pelargonic acid 8160 g/ha)?
**A.** 73%

**Q.** And the herbicidal effect (Convolvulus arvensis; [3])?
**A.** 88%

**Q.** What about the herbicidal effect (Convolvulus arvensis; [4]) of the same compound?
**A.** 88%

**Q.** What about the herbicidal effect (Convolvulus arvensis; [5]) of the same compound?
**A.** 88%

**Q.** And the herbicidal effect (Convolvulus arvensis; [6])?
**A.** 88%

**Q.** What about the herbicidal effect (Convolvulus arvensis; [7]) of the same compound?
**A.** 74%

**Q.** And the herbicidal effect (Convolvulus arvensis; [8])?
**A.** 74%

**Q.** What about the herbicidal effect (Convolvulus arvensis; [9]) of the same compound?
**A.** 74%

**Q.** What about the herbicidal effect (Convolvulus arvensis; 65 d, pelargonic acid 5440 g/ha) of the same compound?
**A.** 0%

**Q.** What about the herbicidal effect (Convolvulus arvensis; 65 d, pelargonic acid 6800 g/ha) of the same compound?
**A.** 0%

**Q.** What about the herbicidal effect (Convolvulus arvensis; 65 d, pelargonic acid 8160 g/ha) of the same compound?
**A.** 0%

**Q.** And the herbicidal effect (Convolvulus arvensis; 65 d, pelargonic acid 10880 g/ha)?
**A.** 0%

**Q.** And the herbicidal effect (Bromus oxyodon; 7 d, pelargonic acid 5440 g/ha)?
**A.** 28%

**Q.** And the herbicidal effect (Bromus oxyodon; 7 d, pelargonic acid 6800 g/ha)?
**A.** 28%

**Q.** And the herbicidal effect (Bromus oxyodon; 7 d, pelargonic acid 8160 g/ha)?
**A.** 28%

**Q.** What about the herbicidal effect (Bromus oxyodon; 7 d, pelargonic acid 10880 g/ha) of the same compound?
**A.** 28%

**Q.** What about the herbicidal effect (Bromus oxyodon; [3]) of the same compound?
**A.** 46%

**Q.** What about the herbicidal effect (Bromus oxyodon; [4]) of the same compound?
**A.** 46%

**Q.** And the herbicidal effect (Bromus oxyodon; [5])?
**A.** 46%

**Q.** What about the herbicidal effect (Bromus oxyodon; [6]) of the same compound?
**A.** 46%

**Q.** What about the herbicidal effect (Bromus oxyodon; 28 d, pelargonic acid 5440 g/ha) of the same compound?
**A.** 78%

**Q.** What about the herbicidal effect (Bromus oxyodon; [7]) of the same compound?
**A.** 78%

**Q.** And the herbicidal effect (Bromus oxyodon; [8])?
**A.** 78%

**Q.** And the herbicidal effect (Bromus oxyodon; [9])?
**A.** 78%

**Q.** What about the herbicidal effect (Senecio vulgaris; 7 d, pelargonic acid 5440 g/ha) of the same compound?
**A.** 20%

**Q.** What about the herbicidal effect (Senecio vulgaris; 7 d, pelargonic acid 6800 g/ha) of the same compound?
**A.** 20%

**Q.** And the herbicidal effect (Senecio vulgaris; [3])?
**A.** 20%

**Q.** And the herbicidal effect (Senecio vulgaris; [4])?
**A.** 20%

**Q.** And the herbicidal effect (Senecio vulgaris; [5])?
**A.** 20%

**Q.** And the herbicidal effect (Senecio vulgaris; 31 d, pelargonic acid 5440 g/ha)?
**A.** 50%

**Q.** What about the herbicidal effect (Senecio vulgaris; 31 d, pelargonic acid 6800 g/ha) of the same compound?
**A.** 50%

**Q.** And the herbicidal effect (Senecio vulgaris; 31 d, pelargonic acid 8160 g/ha)?
**A.** 50%

**Q.** And the herbicidal effect (Senecio vulgaris; 31 d, pelargonic acid 10880 g/ha)?
**A.** 50%

**Q.** What about the herbicidal effect (Senecio vulgaris; 58 d, pelargonic acid 5440 g/ha) of the same compound?
**A.** 97%

**Q.** And the herbicidal effect (Senecio vulgaris; 58 d, pelargonic acid 8160 g/ha)?
**A.** 97%

**Q.** And the herbicidal effect (Senecio vulgaris; 58 d, pelargonic acid 10880 g/ha)?
**A.** 97%

**Q.** And the “herbicidal effect (%)” value (Taraxacum officinalis; Taraxacum officinalis/5 d)?
**A.** 0%

**Q.** And the “herbicidal effect (%)” value (Taraxacum officinalis; Taraxacum officinalis/18 d)?
**A.** 71%

**Q.** And the “herbicidal effect (%)” value (Taraxacum officinalis; Taraxacum officinalis/32 d)?
**A.** 83%

**Q.** What about the “herbicidal effect (%)” value (Taraxacum officinalis; Taraxacum officinalis/61 d) of the same compound?
**A.** 72%

**Q.** And the “herbicidal effect (%)” value (Taraxacum officinalis; Taraxacum officinalis/88 d)?
**A.** 71%

**Q.** What about the “herbicidal effect (%)” value (Veronica persicae; Veronica persicae/7 d) of the same compound?
**A.** 20%

**Q.** And the “herbicidal effect (%)” value (Veronica persicae; Veronica persicae/16 d)?
**A.** 4%

**Q.** What about the “herbicidal effect (%)” value (Veronica persicae; Veronica persicae/26 d) of the same compound?
**A.** 20%

**Q.** What about the “herbicidal effect (%)” value (Veronica persicae; Veronica persicae/59 d) of the same compound?
**A.** 0%

**Q.** And the “herbicidal effect (%)” value (Stellaria media; Stellaria media/5 d)?
**A.** 0%

**Q.** And the “herbicidal effect (%)” value (Stellaria media; Stellaria media/18 d)?
**A.** 79%

**Q.** And the “herbicidal effect (%)” value (Poa annua [1]; Poa annua/6 d)?
**A.** 10%

**Q.** What about the “herbicidal effect (%)” value (Poa annua [1]; Poa annua/16 d) of the same compound?
**A.** 53%

**Q.** And the “herbicidal effect (%)” value (Poa annua [1]; Poa annua/30 d)?
**A.** 60%

**Q.** What about the “herbicidal effect (%)” value (Poa annua [1]; Poa annua/57 d) of the same compound?
**A.** 58%

**Q.** And the “herbicidal effect (%)” value (Poa annua [1]; Poa annua/78 d)?
**A.** 83%

**Q.** And the “herbicidal effect (%)” value (Sonchus oleracea; Sonchus oleracea/6 d)?
**A.** 18%

**Q.** And the “herbicidal effect (%)” value (Sonchus oleracea; Sonchus oleracea/16 d)?
**A.** 28%

**Q.** What about the “herbicidal effect (%)” value (Sonchus oleracea; Sonchus oleracea/30 d) of the same compound?
**A.** 43%

**Q.** What about the “herbicidal effect (%)” value (Sonchus oleracea; Sonchus oleracea/57 d) of the same compound?
**A.** 23%

**Q.** And the “herbicidal effect (%)” value (Sonchus oleracea; Sonchus oleracea/78 d)?
**A.** 45%

**Q.** What about the “herbicidal effect (%)” value (Capsella bursa-pastoris; Capsella bursa-pastoris/6 d) of the same compound?
**A.** 16%

**Q.** And the “herbicidal effect (%)” value (Capsella bursa-pastoris; Capsella bursa-pastoris/16 d)?
**A.** 45%

**Q.** What about the “herbicidal effect (%)” value (Capsella bursa-pastoris; Capsella bursa-pastoris/30 d) of the same compound?
**A.** 55%

**Q.** What about the “herbicidal effect (%)” value (Capsella bursa-pastoris; Capsella bursa-pastoris/57 d) of the same compound?
**A.** 58%

**Q.** What about the herbicidal effect (Trifolium repens) of the same compound?
**A.** 1.2%

**Q.** What about the herbicidal effect (Setaria pumila; flazasulfuron 25 g/ha) of the same compound?
**A.** 89%

**Q.** And the herbicidal effect (Setaria pumila; flazasulfuron 50 g/ha)?
**A.** 92%

**Q.** What about the herbicidal effect (Geranium dissectum; bigger plants, flazasulfuron 50 g/ha) of the same compound?
**A.** 0%

**Q.** And the herbicidal effect (Geranium dissectum; young plants, flazasulfuron 25 g/ha)?
**A.** 7%

**Q.** What about the herbicidal effect (Geranium dissectum; young plants, flazasulfuron 50 g/ha) of the same compound?
**A.** 8%

**Q.** And the herbicidal effect (Poa annua [2])?
**A.** 0%

**Q.** What about the herbicidal effect (Matricaria chamomilla; flazasulfuron 25 g/ha) of the same compound?
**A.** 0%

**Q.** And the herbicidal effect (Matricaria chamomilla; flazasulfuron 50 g/ha)?
**A.** 2%
